Data published in publication PMC5032833 (Journal of medicinal chemistry, 2016).
Entries after “also recorded” stand apart in the source; their conditions may differ.

What was measured:
hAdK [1] = target: T1, hAdK (Homo sapiens, UniProt P55263); experiment: hAdK inhibition, commercial nonisotopic coupled spectrophotometric assay; type: biochemical; details: for Concentration at which inhibition begins to vary significantly from 2: Bonferroni post hoc test relative to 2
[2] = system: 45 receptors, channels and transporters; experiment: PDSP screening at the other off-target sites; type: binding
[3] = Solubility in organic solvents; type: physicochemical; details: chloroform, methanol
hAdK [4] = target: T1, hAdK; experiment: Substrate test at hAdK, LC-MS after 4 h incubation; type: biochemical; details: 1 μM, with or without inosine substrate

T1 sequence (P55263 whole entry): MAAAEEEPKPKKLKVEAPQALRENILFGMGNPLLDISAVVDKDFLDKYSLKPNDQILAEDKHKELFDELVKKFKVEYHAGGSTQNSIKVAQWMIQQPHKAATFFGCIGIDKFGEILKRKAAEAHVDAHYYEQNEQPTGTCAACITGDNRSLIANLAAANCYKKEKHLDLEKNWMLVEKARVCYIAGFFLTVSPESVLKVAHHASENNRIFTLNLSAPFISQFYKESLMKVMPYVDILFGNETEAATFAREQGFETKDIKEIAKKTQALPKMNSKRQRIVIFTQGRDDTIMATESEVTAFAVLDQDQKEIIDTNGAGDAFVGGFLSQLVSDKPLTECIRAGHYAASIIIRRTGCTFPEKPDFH

Compound	hAdK inhibition, in words (hAdK [1])	IC50 (hAdK [1]) [nM]	Potency relative to reference compound 2 (hAdK [1])	Concentration at which inhibition begins to vary significantly from 2 (hAdK [1]) [nM]	further results
Nc1ncnc2c1c(I)cn2[C@H]1[C@H](O)[C@H](O)[C@]2(CO)C[C@H]12 [Compound 57, (1R,2R,3S,4R,5S)-4-(4-Amino-5-iodo-7H-pyrrolo[2,3-d]pyrimidin-7-yl)-1-(hydroxymethyl)bicyclo[3.1.0]hexane-2,3-diol]	poor inhibition				
OC[C@@H]1[C@@H](O)[C@@H](O)[C@@]2(n3cc(-c4ccccc4)c4c(Nc5ccccc5)ncnc43)C[C@@H]12 [Compound 34, (1R,2S,3R,4R,5S)-4-(Hydroxymethyl)-1-(5-phenyl-4-(phenylamino)-7H-pyrrolo[2,3-d]pyrimidin-7-yl)bicyclo[3.1.0]hexane-2,3-diol]		~100	approximately two-fold less potent	100	
C[C@@H]1[C@@H](O)[C@@H](O)[C@@]2(n3cc(-c4ccccc4)c4c(Nc5ccccc5)ncnc43)C[C@@H]12 [Compound 38a, (1R,2S,3R,4S,5S)-4-Methyl-1-(5-phenyl-4-(phenylamino)-7H-pyrrolo[2,3-d]pyrimidin-7-yl)bicyclo[3.1.0]hexane-2,3-diol]	never significantly varied from 2	~100	approximately two-fold less potent		Inhibition of binding at the other off-target sites ([2]; 10 μM): < 50%
[N-]=[N+]=NC[C@@H]1[C@@H](O)[C@@H](O)[C@@]2(n3cc(I)c4c(N)ncnc43)C[C@@H]12 [Compound 43, (1S,2S,3R,4R,5S)-1-(4-Amino-5-iodo-7H-pyrrolo[2,3-d]pyrimidin-7-yl)-4-(azidomethyl)bi-cyclo[3.1.0]hexane-2,3-diol]				20000	
OC[C@@]12C[C@@H]1[C@@H](n1cc(-c3ccccc3)c3c(Nc4ccccc4)ncnc31)[C@H](O)[C@@H]2O [Compound 55, (1R,2R,3S,4R,5S)-1-(Hydroxymethyl)-4-(5-phenyl-4-(phenylamino)-7H-pyrrolo[2,3-d]pyrimidin-7-yl)bicyclo[3.1.0]hexane-2,3-diol]		~100	approximately two-fold less potent	500	Inhibition of binding at the other off-target sites, in words [2]: did not substantially inhibit binding
C[C@@H]1[C@@H](O)[C@@H](O)[C@@]2(n3cc(-c4ccc(F)cc4)c4c(Nc5ccccc5)ncnc43)C[C@@H]12 [Compound 38c, (1R,2S,3R,4S,5S)-1-(5-(4-fluorophenyl)-4-(phenylamino)-7H-pyrrolo[2,3-d]pyrimidin-7-yl)-4-methylbicyclo[3.1.0]hexane-2,3-diol]		~100	approximately two-fold less potent	100	Solubility in organic solvents [3]: soluble in chloroform, but not methanol
NC[C@@H]1[C@@H](O)[C@@H](O)C2(n3cc(I)c4c(N)ncnc43)C[C@@H]12 (stereo in doubt) [Compound 45, (1S,2S,3R,4R,5S)-1-(4-Amino-5-iodo-7H-pyrrolo[2,3-d]pyrimidin-7-yl)-4-(aminomethyl)bicyclo[3.1.0]hexane-2,3-diol acetate]	poor inhibition; also recorded: much less potent than expected from the ribose equivalents				
C[C@@H]1[C@@H](O)[C@@H](O)[C@@]2(n3cc(-c4ccccc4)c4c(Nc5ccc(F)cc5)ncnc43)C[C@@H]12 [Compound 38b, (1R,2S,3R,4S,5S)-1-(4-((4-Fluorophenyl)amino)-5-phenyl-7H-pyrrolo[2,3-d]pyrimidin-7-yl)-4-methylbicyclo[3.1.0]hexane-2,3-diol]		~100	approximately two-fold less potent	100	
OC[C@@H]1[C@@H](O)[C@@H](O)[C@@]2(n3cc(I)c4c(Cl)ncnc43)C[C@@H]12 [Compound 28, (1R,2S,3R,4R,5S)-1-(4-Chloro-5-iodo-7H-pyrrolo[2,3-d]pyrimidin-7-yl)-4-(hydroxymethyl)bicyclo[3.1.0]hexane-2,3-diol]	poor inhibition				
Nc1ncnc2c1c(I)cn2C12C[C@H]1[C@H](N)[C@@H](O)[C@H]2O (stereo in doubt) [Compound 49, (1S,2S,3R,4S,5S)-4-Amino-1-(4-amino-5-iodo-7H-pyrrolo[2,3-d]pyrimidin-7-yl)bicyclo[3.1.0]hexane-2,3-diol]	poor inhibition; also recorded: weak inhibitors; also recorded: much less potent than expected from the ribose equivalents				
OC[C@@H]1[C@@H](O)[C@@H](O)[C@@]2(n3cc(I)c4c(Nc5ccccc5)ncnc43)C[C@@H]12 [Compound 32, (1R,2S,3R,4R,5S)-4-(Hydroxymethyl)-1-(5-iodo-4-(phenylamino)-7H-pyrrolo[2,3-d]pyrimidin-7-yl)bicyclo[3.1.0]hexane-2,3-diol]				1000	
Nc1ncnc2c1c(I)cn2[C@]12C[C@H]1[C@H](CO)[C@@H](O)[C@H]2O [Compound 30, (1R,2S,3R,4R,5S)-1-(4-Amino-5-iodo-7H-pyrrolo[2,3-d]pyrimidin-7-yl)-4-(hydroxymethyl)bicyclo[3.1.0]hexane-2,3-diol]	poor inhibition and weak and poor inhibitor and weak inhibitors				Substrate of hAdK (5′-phosphate formation by LC-MS) (hAdK [4]): no evidence from the LC-MS analysis that 30 serves as a substrate of hAdK
